Earlier results, collected in US10085951B2, “Curcuminoid formulations and related methods of treatment” (DESIGNS FOR HEALTH, INC., priority 2014, dated 2018).

COc1cc(/C=C/C(=O)CC(=O)/C=C/c2ccc(O)c(OC)c2)ccc1O [curcumin, 1,6-heptadiene-3,5-dione1,7-bis (4-hydroxy-3-methoxyphenyl)-(1E,6E)]
Solubility in ethanol, dimethylsulfoxide and acetone: soluble | Solubility in water and ether: practically insoluble
